Holding throughout (assay): Bliss excess, mean over the matrix (fraction); higher = more synergy
For test [1], the system named is L-1236 (Hodgkin's Lymphoma). In short, it runs like this: (§1)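 Cell lines in DMEM/F12 or RPMI with 10% FBS were plated in 1536-well plates, held 24 hours at 37°C, 5% CO2, then given two-drug dose matrices for 72 hours (DMSO typically 0.2%). Viability was read by CellTiter-Glo 2.0 luminescence and scaled as inhibition from 0 (vehicle wells) to 1 (blank wells). Combination Emax is the second-highest inhibition in the matrix; Bliss excess is observed combination effect minus expected EA + EB − EA·EB, EA and EB being single-agent effects.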

The subject of a further test is SF268 (Low Grade Glioma). In short, it runs like this:
as §1

Test [2] deals with OPM-2 (Plasma Cell Myeloma). In short, it runs like this:
as §1

For another test, the system named is GB-1 (Glioblastoma). Put shortly: as §1
A further test deals with WM278 (Melanoma). In short, it runs like this: as §1
In test [3] the test system is FADU (Head and Neck Carcinoma). Put shortly:
as §1

The test system of test [4] is MFE-280 (Endometrial Carcinoma). Put shortly: as §1
For test [5], the system named is OVMIU (Ovarian Carcinoma). In short, it runs like this: as §1
Test [6] deals with OAW-42 (Ovarian Carcinoma). Put shortly:
as §1

The subject of test [7] is PSN1 (Pancreatic Carcinoma). In short, it runs like this:
as §1

Test [8] deals with LK-2 (Squamous Cell Lung Carcinoma). In short, it runs like this:
as §1

In test [9] the test system is SHP-77 (Small Cell Lung Carcinoma). In short, it runs like this: as §1
Test [10] relates to VAL (B-Cell Non-Hodgkin's Lymphoma). In short, it runs like this: as §1
The next test has as its system LN-229 (Glioblastoma). Put shortly: as §1
Test [11] has as its system LB996-RCC (Kidney Carcinoma). Put shortly:
as §1

Test [12] deals with COLO-680N (Esophageal Squamous Cell Carcinoma). Put shortly: as §1
Test [13] concerns SK-PN-DW (Other Solid Carcinomas). Put shortly:
as §1

The test system of test [14] is RERF-GC-1B (Gastric Carcinoma). Put shortly: as §1
In test [15] the test system is NCI-H446 (Small Cell Lung Carcinoma). In short, it runs like this: as §1
The subject of test [16] is TE-8 (Esophageal Squamous Cell Carcinoma). In short, it runs like this: as §1

The structures appear in SMILES notation.

The record followed here is the supplement of paper PMC11061612.

In the case of `CN(C)CCCOc1ccc(-c2ccc3ncc4c(c3c2)n(C2CCOCC2)c(=O)n4C)cn1` [AZD0156] + O=C(c1cc(Cc2n[nH]c(=O)c3ccccc23)ccc1F)N1CCN(C(=O)C2CC2)CC1 [Olaparib] (first compound max 3 µM, partner max 3 µM), the Bliss excess in test [1] is -0.0602; in the test with SF268 (Low Grade Glioma) it was -0.0347; in [2], 0.0067; in the test with GB-1 (Glioblastoma), 0.014; with WM278 (Melanoma) it was 0.0011; in test [3], 0.0039. For the same compound, the Bliss excess in [4] is 0.0591; in [5], 0.06; in test [6], 0.0145; in test [7] it was 0.0124; in test [8], 0.154; in [9] it was 0.0544. In addition, the Bliss excess in test [10] was 0.141; in the test on LN-229 (Glioblastoma), -0.0258; in [11] it was 0.0071; in [12], -0.0076; in test [13] it was 0.0158; in test [14] it was -0.0079. Besides, the Bliss excess in test [15] is 0.0788.
For the compound `C=CCn1c(=O)c2cnc(Nc3ccc(N4CCN(C)CC4)cc3)nc2n1-c1cccc(C(C)(C)O)n1` [AZD1775] + C1CN(CCC1(C(=O)N[C@@H](CCO)C2=CC=C(C=C2)Cl)N)C3=NC=NC4=C3C=CN4 [Capivasertib] (first compound max 3 µM, partner max 3 µM), the Bliss excess in [1] is -0.097; in the test on SF268 (Low Grade Glioma), -0.009; in [2], 0.0001; with GB-1 (Glioblastoma), -0.0211; in the test on WM278 (Melanoma), -0.0468; in test [3], 0.0615. The Bliss excess in test [4] was -0.0055; in [5], -0.0032; in [6], -0.0399; in [7], -0.0238; in test [8], -0.0913; in test [9] it was -0.0114. Also, the Bliss excess in [10] is -0.0252; in the test on LN-229 (Glioblastoma) it was -0.062; in test [11], -0.0587; in [12], 0.0133; in [13], 0.0265; in test [14], -0.0632. In addition, in test [15], the Bliss excess was found to be 0.0213.
Take `COc1nnc2ccc(N3CCC(c4ccc(OCCN5CCN(C)C(=O)[C@H]5C)cc4)CC3)nn12` [AZD5153] + CN(CC[C@H](CSC1=CC=CC=C1)NC2=C(C=C(C=C2)S(=O)(=O)NC(=O)C3=CC=C(C=C3)N4CCC(CC4)[C@H](C5=CC=CC=C5C6=CC=C(C=C6)Cl)O)S(=O)(=O)C(F)(F)F)CCO [AZD4320] (first compound max 1 µM, 7x7, partner max 1 µM): the Bliss excess in the test with SF268 (Low Grade Glioma) is -0.0183; with GB-1 (Glioblastoma) it was 0.0003; in the test on WM278 (Melanoma), 0.0168; in [3], 0.0146; in [6] it was 0.0913; in the test on LN-229 (Glioblastoma), 0.0357. Also, the Bliss excess came to 0.0253 in test [11], 0.014 in test [14] and 0.107 in [15].
For `Cc1c2c(nn1C)CSCc1cc(n(C)n1)CSc1cc(c3ccccc3c1)OCCCc1c(C(=O)O)n(C)c3c-2c(Cl)ccc13` [AZD5991] + CCN(CCO)CCCOc1ccc2c(Nc3cc(CC(=O)Nc4cccc(F)c4)[nH]n3)ncnc2c1 [AZD2811] (first compound max 1 µM, 7x7, partner max 1 µM), the Bliss excess in [1] was 0.0255; in the test with SF268 (Low Grade Glioma), 0.0835; in [2], 0.0578; with GB-1 (Glioblastoma), -0.0318; in the test with WM278 (Melanoma), 0.0657; in test [3], 0.132. Moreover, the Bliss excess is 0.053 in [4]; -0.099 in test [5]; -0.0138 in test [16]; 0.0173 in test [6]; -0.0467 in test [7]; -0.0115 in test [8]. Besides, the Bliss excess is -0.034 in test [9]; -0.0541 in test [10]; 0.0043 in the test with LN-229 (Glioblastoma); -0.0388 in [11]; 0.007 in test [12]; 0.0869 in test [13]. Also, the Bliss excess in test [14] was 0.014.
On to `Cc1c2c(nn1C)CSCc1cc(n(C)n1)CSc1cc(c3ccccc3c1)OCCCc1c(C(=O)O)n(C)c3c-2c(Cl)ccc13` [AZD5991] + CN(C)CCCOc1ccc(-c2ccc3ncc4c(c3c2)n(C2CCOCC2)c(=O)n4C)cn1 [AZD0156] (first compound max 1 µM, 7x7, partner max 1 µM), for which the Bliss excess in [1] was 0.0295; in the test on SF268 (Low Grade Glioma) it was 0.0324; in test [2], -0.0241; in the test on GB-1 (Glioblastoma), 0.0075; in the test on WM278 (Melanoma) it was -0.0196; in test [3], 0.0409. The Bliss excess in [4] is -0.0159; in test [5], -0.0328; in test [16] it was -0.0172; in test [6], 0.0454; in [8] it was 0.0039; in test [9], -0.0033. Also, the Bliss excess in test [10] is -0.0034; with LN-229 (Glioblastoma) it was 0.0024; in [11], -0.0569; in [12] it was 0.0049; in test [13], -0.0117; in [14], 0.0263. In test [15], the Bliss excess worked out at 0.052.
On to `Cc1c2c(nn1C)CSCc1cc(n(C)n1)CSc1cc(c3ccccc3c1)OCCCc1c(C(=O)O)n(C)c3c-2c(Cl)ccc13` [AZD5991] + C[C@@H]1COCCN1C2=NC(=NC(=C2)C3(CC3)[S@](=N)(=O)C)C4=C5C=CNC5=NC=C4 [AZD6738] (first compound max 1 µM, 7x7, partner max 10 µM), for which the Bliss excess stood at 0.104 in [1]; 0.0188 in the test with SF268 (Low Grade Glioma); 0.0291 in [2]; 0.0116 with GB-1 (Glioblastoma); 0.0307 with WM278 (Melanoma); 0.0284 in test [3]. Besides, the Bliss excess in test [4] is 0.0388; in test [5], -0.0037; in test [16], 0.0197; in [6], 0.0046; in test [7], -0.0143; in test [8], 0.0146. Moreover, the Bliss excess in test [9] is -0.0048; in test [10], -0.0898; in the test on LN-229 (Glioblastoma), 0.0344; in test [11] it was 0.0301; in test [12], 0.0186; in test [13], -0.0175. The Bliss excess in test [15] worked out at 0.0708.
For the compound `CS(=O)(=O)CCNCc1ccc(-c2ccc3ncnc(Nc4ccc(OCc5cccc(F)c5)c(Cl)c4)c3c2)o1` [Lapatinib] + NC1(c2ccc(-c3nc4ccn5c(=O)[nH]nc5c4cc3-c3ccccc3)cc2)CCC1 [MK-2206] (first compound max 10 µM, 7x7, partner max 10 µM), the Bliss excess in test [1] was 0.0138; in test [2], 0.0183; in test [4], -0.006; in test [5], 0.0659; in test [16], -0.0004; in test [6], -0.0089. Further, the Bliss excess in [7] is 0.0205; in [8] it was 0.0303; in test [9], -0.0136; in test [10], -0.0147; with LN-229 (Glioblastoma) it was -0.0959; in test [12], 0.0426. The Bliss excess in [13] is 0.1; in test [14] it was 0.0194; in test [15] it was -0.0173.
As to `CC(=O)c1c(C)c2cnc(Nc3ccc(N4CCNCC4)cn3)nc2n(C2CCCC2)c1=O` [Palbociclib] + CN(CC[C@H](CSC1=CC=CC=C1)NC2=C(C=C(C=C2)S(=O)(=O)NC(=O)C3=CC=C(C=C3)N4CCC(CC4)[C@H](C5=CC=CC=C5C6=CC=C(C=C6)Cl)O)S(=O)(=O)C(F)(F)F)CCO [AZD4320] (first compound max 10 µM, 7x7, partner max 1 µM), the Bliss excess was -0.0438 with SF268 (Low Grade Glioma); -0.111 in the test on GB-1 (Glioblastoma); -0.106 with WM278 (Melanoma); -0.137 in test [3]; -0.0177 in test [6]; -0.059 in the test with LN-229 (Glioblastoma). For the same compound, the Bliss excess in test [11] was -0.0652; in test [14], -0.0147; in test [15], -0.0065.
